Where “and” joins values, the source holds several entries; their conditions need not be identical. Identical values can stand only once. Like-named read-outs stand apart in the source and are kept apart here.
Key:
[1] = tested on: Influenza virus; conditions: continuous, 0.5 ppm; cited from earlier work
[2] = tested on: bacteriophage phi 6; conditions: 3 to 14 mL of 1.4 mmol/L (65 micrograms/mL) to 1.6 mmoler/L, aqueous; cited from earlier work
[3] = tested on: HSV; assay: Experiment #3: reduced ozone doses and high humidity; conditions: high humidity, 20 ppm to 40 ppm, about 15 minutes
[4] = tested on: HIV Type 1; conditions: 2 hours, 1,200 ppm; cited from earlier work
[5] = tested on: Polio-viruses; conditions: aqueous, 1.0 to 1.5 mg ozone/liter (dissolved); cited from earlier work
[6] = tested on: Vesicular stomatitis virus (VSV); conditions: 3 to 14 mL of 1.4 mmol/L (65 micrograms/mL) to 1.6 mmoler/L, aqueous; cited from earlier work
[7] = tested on: HEp-2 cell-associated poliovirus (Sabin 1); conditions: cited from earlier work
[8] = tested on: Human rotavirus; conditions: aqueous, 25 μg/ml; cited from earlier work
[9] = tested on: Polio-virus 1 (PV1); conditions: steadily flowing water at 20 degrees C. and pH 7; cited from earlier work
[10] = tested on: Influenza virus; conditions: 3 hours (post infection), 0.6 ppm; cited from earlier work
[11] = tested on: HEp-2 cell-associated coxsackievirus A9; conditions: aqueous, 30 seconds, 4.06-4.68 mg/liter; cited from earlier work
[12] = tested on: MCV
[13] = tested on: Herpes Simplex Virus (HSV); assay: Experiment #4: ozone gas against dried viruses on surfaces
[14] = tested on: Feline calicivirus (FCV)
[15] = tested on: Influenza virus; conditions: gaseous, in vivo, 0.5 ppm; cited from earlier work
[16] = tested on: influenza virus
[17] = tested on: T1 phage; conditions: gaseous, 10 minutes, 10 ppm; cited from earlier work
[18] = tested on: Hepatitis A virus; conditions: aqueous, 60 seconds, 1 mg/L or greater at all pH levels; cited from earlier work
[19] = tested on: corona virus
[20] = tested on: Respiratory syncytial virus; conditions: gaseous, in vitro, 2 hours, 1 ppm; cited from earlier work
[21] = tested on: rhinovirus; assay: Experiment #4: ozone gas against dried viruses on surfaces; conditions: dried state on glass, plastic, steel, wood and fabric
[22] = tested on: HSV; assay: Experiment #2: ozone inactivation at different locations within a test room; conditions: 28 ppm, 60 minutes exposure; three samples at three locations in test room
[23] = tested on: Poliovirus; conditions: dried state on glass, plastic, steel, wood and fabric
[24] = tested on: Influenza virus; conditions: inhaled, 0.5 ppm; cited from earlier work
[25] = tested on: viruses
[26] = target: factor VIII (Homo sapiens, UniProt P00451); conditions: plasma and immunoaffinity-purified preparations; 2 hours, 1,200 ppm; cited from earlier work
[27] = tested on: FCV; assay: Experiment #3: reduced ozone doses and high humidity; conditions: high humidity, 20 ppm to 40 ppm, about 15 minutes
[28] = tested on: Feline calicivirus (FCV); assay: Experiment #1: ozone gas exposure of virus on surfaces in a chamber
[29] = tested on: HIV; conditions: serum and serum-supplemented media; tested 0.5 to 4.0 micrograms/ml−1; cited from earlier work
[30] = tested on: Mulluscum Contagiosum Virus (MCV)
[31] = tested on: Poliovirus; conditions: 0.1-2.0 mg/l, aqueous, cited from earlier work
[32] = tested on: Poliovirus; conditions: high humidity, 20 ppm to 40 ppm, about 15 minutes
[33] = tested on: Poliovirus; conditions: under similar conditions (about 100 ppm chamber)
[34] = tested on: Polio-virus type 3; conditions: aqueous, 20 seconds, ozone demand-free 0.05 M phosphate buffer (pH 6.9) at 22 degrees C.; cited from earlier work
[35] = tested on: viruses; remark: listed apart in the source
[36] = tested on: MS2 coliphage; conditions: aqueous, 20 seconds, ozone demand-free 0.05 M phosphate buffer (pH 6.9) at 22 degrees C.; cited from earlier work
[37] = tested on: Human rotavirus; conditions: cited from earlier work
[38] = tested on: Hepatitis A virus; conditions: ozone and UV light, cited from earlier work
[39] = tested on: Herpes Simplex Virus (HSV); assay: Experiment #1: ozone gas exposure of virus on surfaces in a chamber
[40] = tested on: Venezuelan equine encephalomyelitis virus; conditions: aqueous, 45 minutes, 0.025 mg of ozone per liter; control levels 10 (7.25-7.5); cited from earlier work
[41] = tested on: FV
[42] = tested on: type 39 rhinovirus; conditions: cited from earlier work

factor VIII, sequence (P00451 20-2351): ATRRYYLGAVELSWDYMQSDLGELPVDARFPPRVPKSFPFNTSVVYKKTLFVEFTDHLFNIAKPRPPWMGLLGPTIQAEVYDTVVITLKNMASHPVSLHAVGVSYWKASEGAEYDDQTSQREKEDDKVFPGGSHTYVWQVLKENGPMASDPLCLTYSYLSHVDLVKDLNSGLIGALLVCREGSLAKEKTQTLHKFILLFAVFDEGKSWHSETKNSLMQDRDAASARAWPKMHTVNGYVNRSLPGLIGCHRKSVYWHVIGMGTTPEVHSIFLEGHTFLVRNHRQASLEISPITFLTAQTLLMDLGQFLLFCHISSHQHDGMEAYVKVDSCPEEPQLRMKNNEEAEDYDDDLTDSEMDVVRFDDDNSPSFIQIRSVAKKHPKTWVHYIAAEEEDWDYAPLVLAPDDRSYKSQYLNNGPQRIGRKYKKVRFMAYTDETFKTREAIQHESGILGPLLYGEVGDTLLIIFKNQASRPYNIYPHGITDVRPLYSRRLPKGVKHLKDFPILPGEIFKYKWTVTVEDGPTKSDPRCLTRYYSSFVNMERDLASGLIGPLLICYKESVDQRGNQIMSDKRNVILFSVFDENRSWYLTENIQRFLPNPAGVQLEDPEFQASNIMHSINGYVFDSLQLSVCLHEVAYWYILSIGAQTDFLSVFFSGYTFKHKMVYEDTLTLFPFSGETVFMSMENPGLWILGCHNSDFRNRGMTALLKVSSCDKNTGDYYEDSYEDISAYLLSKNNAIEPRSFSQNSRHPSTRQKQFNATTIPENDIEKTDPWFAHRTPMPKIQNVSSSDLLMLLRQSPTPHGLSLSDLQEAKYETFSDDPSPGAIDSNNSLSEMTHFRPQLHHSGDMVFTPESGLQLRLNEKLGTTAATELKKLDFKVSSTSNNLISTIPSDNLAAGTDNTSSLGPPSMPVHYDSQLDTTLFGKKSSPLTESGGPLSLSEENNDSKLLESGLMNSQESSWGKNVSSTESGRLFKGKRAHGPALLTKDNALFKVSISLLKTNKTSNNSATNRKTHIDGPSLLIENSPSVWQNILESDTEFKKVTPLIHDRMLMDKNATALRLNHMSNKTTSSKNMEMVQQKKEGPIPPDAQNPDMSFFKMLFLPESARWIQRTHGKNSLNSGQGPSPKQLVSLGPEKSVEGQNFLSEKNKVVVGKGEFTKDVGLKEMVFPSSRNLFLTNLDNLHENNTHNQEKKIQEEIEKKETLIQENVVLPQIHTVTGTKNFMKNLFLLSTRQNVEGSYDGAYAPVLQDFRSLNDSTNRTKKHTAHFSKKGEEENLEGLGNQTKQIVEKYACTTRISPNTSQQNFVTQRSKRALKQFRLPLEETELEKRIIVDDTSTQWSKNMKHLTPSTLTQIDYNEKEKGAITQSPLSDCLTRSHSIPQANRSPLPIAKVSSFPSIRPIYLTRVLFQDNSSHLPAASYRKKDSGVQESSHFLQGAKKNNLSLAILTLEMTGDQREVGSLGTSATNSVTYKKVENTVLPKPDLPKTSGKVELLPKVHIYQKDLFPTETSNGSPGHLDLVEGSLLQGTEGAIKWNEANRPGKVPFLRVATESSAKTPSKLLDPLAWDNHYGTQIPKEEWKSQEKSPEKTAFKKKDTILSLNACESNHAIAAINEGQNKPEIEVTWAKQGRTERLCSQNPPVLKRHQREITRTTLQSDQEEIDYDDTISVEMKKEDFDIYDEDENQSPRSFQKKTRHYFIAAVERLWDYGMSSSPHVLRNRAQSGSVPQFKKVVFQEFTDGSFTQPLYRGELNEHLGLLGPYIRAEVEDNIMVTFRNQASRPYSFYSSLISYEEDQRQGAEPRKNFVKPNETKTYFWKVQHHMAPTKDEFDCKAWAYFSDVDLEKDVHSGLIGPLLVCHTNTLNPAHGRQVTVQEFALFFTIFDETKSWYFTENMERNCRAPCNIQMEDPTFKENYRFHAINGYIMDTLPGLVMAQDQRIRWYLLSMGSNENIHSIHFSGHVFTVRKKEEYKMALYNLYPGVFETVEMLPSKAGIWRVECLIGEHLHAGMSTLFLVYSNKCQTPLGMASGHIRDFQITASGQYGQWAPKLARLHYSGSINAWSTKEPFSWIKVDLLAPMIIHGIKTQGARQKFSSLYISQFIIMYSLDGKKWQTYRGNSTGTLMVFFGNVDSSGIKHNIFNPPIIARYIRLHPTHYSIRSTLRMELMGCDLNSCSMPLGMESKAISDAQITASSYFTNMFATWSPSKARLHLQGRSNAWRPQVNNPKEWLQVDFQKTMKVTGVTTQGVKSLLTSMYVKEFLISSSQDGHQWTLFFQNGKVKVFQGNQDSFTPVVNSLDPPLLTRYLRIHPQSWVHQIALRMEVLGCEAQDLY

Ozone
acute virus-induced lung injury & residual lung damage [1]: exposure mitigates acute
mitigated the virus-induced acute lung injury [1]: approximately 50%. Ozone
proliferation of virus in the lungs as quantitated by infectious virus titers [1]: Ozone exposure did not alter
inactivated [2]: Inactivated by greater than 4 log10
inactivated [3]: more than 99%
inactivation [4]: >11 log inactivation (NB.
Effectiveness [5]: Dependant on the condition
inactivated [6]: Inactivated by greater than 4 log10
Effectiveness (inactivation) [7]: Inactivated cell-associated
decrease of rotavirus infectivity [8]: 8 to 9 log10 TCID50/ml.
Concentration for complete inactivation of PV1 [9]: 0.13 mg/L
virus growth in nose [10]: Complete inhibition of virus
Effectiveness (inactivation) [11]: Inactivated cell-associated
reduced the virus [12]: more than 99%
reduced the virus ([13]; 100 ppm for 20 to 30 minutes): more than 99%
inactivation (kill) by ozone gas ([13]; dried state on glass, plastic, steel, wood and fabric): efficiently inactivate
inactivation by the ozone generator [14]: efficiently inactivated
Severity of infection [15]: Severity of infection reduced
inactivation (kill) by ozone gas [16]: efficiently inactivate
reduction in number of phages [17]: 90% reduction in number of
complete inactivation [18]: complete (5 log) inactivation
inactivation (kill) by ozone gas [19]: efficiently inactivate
percentage of cells infected, experimental versus control groups [20]: No difference
inactivation (kill) by ozone gas [21]: efficiently inactivate
HSV inactivated (killed) [22]: 98% and 99.4% and 97.8%
inactivation (kill) by ozone gas [23]: efficiently inactivate
distribution of viral antigen [24]: well as altered the distribution
spread of infection [24]: less widespread infection, as
susceptibility of viruses to ozone on surfaces [25]: susceptible
virus inactivation in high humidity versus ambient humidity [25]: much more efficiently
effect on factor VIII activity [26]: Minimal effect on factor VIII
inactivated [27]: 99.91%
reduced the virus ([28]; 100 ppm for 20-30 minutes): more than 99%
inactivated virus infectivity ([28]; 100 ppm, 10 minutes): 90-95%
concentration at which complete inactivation of HIV obtained [29]: obtained at 4.0 micrograms/ml−1
reduced the virus [30]: more than 99%
virus inactivated, Step 1 ([31]; Step 1: 0.2-1.0 s): Step 1: 95 to 99% of the virus
virus inactivated, Step 2 ([31]; Step 2: several minutes): Step 2: remainder inactivated
inactivated [32]: more than 99.6%
inactivation by ozone [33]: inactivated
more inactivation observed with MS2 coliphage than with poliovirus type 3 [34]: inactivated, 1.6 log units more
susceptibility of viruses to ozone on surfaces [35]: susceptible
virus inactivation in high humidity versus ambient humidity [35]: much more efficiently
virus infectivity after exposure [35]: no vilus infectivity could be detected at all
MS2 coliphage inactivated [36]: >99.99% of MS2 coliphage
sensitivity of human rotavirus to inactivation compared with simian rotavirus [37]: strikingly less sensitive to
virus titre after depuration ([38]; from 1.72 log TCID50 ml(−1), within 24 h): [TCID50] ml(−1) to <1 log log TCID50 ml(−1)
virus titre after depuration ([38]; from 3.82 log TCID50 ml(−1), within 48 h): ml(−1) to <1 log TCID50 ml(−1)
reduced the virus ([39]; 100 ppm for 20-30 minutes): more than 99%
inactivated virus infectivity ([39]; 100 ppm, 10 minutes): 90-95%
inactivation [40]: Inactivation of 10 (6.5) median median cell culture infective doses
reduced the virus [41]: more than 99%
adverse effects in experimental group ([42]; human, in vivo): placebo groups; no adverse
effect on individuals infected with rhinovirus ([42]; human, in vivo): no effect
viral titres, experimental versus placebo groups ([42]; inhaled, 0.3 ppm, 6 hours per day for five days): No difference in viral titres
